Source: ChEMBL document CHEMBL3045921, “Synthesis and Acaricidal Activity of Pyrazole-5-carboxamide Derivatives” (1991)
In brackets after ≈: the same amount, converted by molar mass.

Experiments:
Assay type in all cases: functional
[1] = tested on: Tetranychus urticae; test: Ovicidal activity against Tetranychus urticae (two-spotted spider mite) in kidney bean leaf assessed as egg mortality at 25 degC measured after 7 days; conditions: 168 h
[2] = tested on: Tetranychus urticae; test: Adulticidal activity against Tetranychus urticae (two-spotted spider mite) in kidney bean leaf assessed as mortality at 25 degC measured after 2 days; conditions: 48 h
[3] = tested on: Panonychus citri; test: Adulticidal activity against Panonychus citri in mandarin orange leaf assessed as mortality at 25 degC measured after 2 days; conditions: 48 h
[4] = tested on: Panonychus citri; test: Ovicidal activity against Panonychus citri in mandarin orange leaf assessed as egg mortality at 25 degC measured after 7 days; conditions: 168 h
[5] = tested on: Tetranychus urticae; test: Acaricidal activity against Tetranychus urticae (two-spotted spider mite) in kidney bean leaf assessed as mortality at 12.5 ppm at 25 degC measured after 5 days; conditions: 120 h
[6] = tested on: Tetranychus urticae; test: Acaricidal activity against Tetranychus urticae (two-spotted spider mite) in kidney bean leaf assessed as mortality at 500 ppm at 25 degC measured after 5 days; conditions: 120 h
[7] = tested on: Tetranychus urticae; test: Acaricidal activity against Tetranychus urticae (two-spotted spider mite) in kidney bean leaf assessed as mortality at 3.1 ppm at 25 degC measured after 5 days; conditions: 120 h
[8] = tested on: Tetranychus urticae; test: Acaricidal activity against Tetranychus urticae (two-spotted spider mite) in kidney bean leaf assessed as mortality at 200 ppm at 25 degC measured after 5 days; conditions: 120 h
[9] = tested on: Tetranychus urticae; test: Acaricidal activity against Tetranychus urticae (two-spotted spider mite) in kidney bean leaf assessed as mortality at 50 ppm at 25 degC measured after 5 days; conditions: 120 h

SMILES	LC50 [1] [µg/mL]	LC50 [2] [µg/mL]	LC50 [3] [µg/mL]	LC50 [4] [µg/mL]	mortality at 12.5 ppm [5] [%]	mortality at 500 ppm [6] [%]	mortality at 3.1 ppm [7] [%]	mortality at 200 ppm [8] [%]	mortality at 50 ppm [9] [%]
CCc1nn(C)c(C(=O)NCc2ccc(C(C)(C)C)cc2)c1Br	1.4 (≈ 3.7 µM)	7.1 (≈ 18.8 µM)	0.59 (≈ 1.56 µM)	10 (≈ 26.4 µM)	–	–	–	–	–
CCc1nn(C)c(C(=O)NCc2ccc(C3CC3)cc2)c1Cl	–	–	–	–	0	30	0	0	0
Cc1nn(C)c(C(=O)NCc2ccc(C(C)(C)C)cc2)c1C	8.8 (≈ 29.4 µM)	7.5 (≈ 25 µM)	6.1 (≈ 20.4 µM)	36 (≈ 120 µM)	100	100	0	100	100
Cc1nn(C)c(C(=O)NCc2ccc(C(C)(C)C)cc2)c1C#N	–	–	–	–	0	0	0	0	0
Cc1nn(C)c(C(=O)NCc2ccc(C(C)(C)C)cc2)c1[N+](=O)[O-]	–	–	–	–	0	0	0	0	0
Cc1nn(C)c(C(=O)NCc2ccc(C(C)(C)C)cc2)c1N	–	–	–	–	0	0	0	0	0
CC(=O)Nc1c(C)nn(C)c1C(=O)NCc1ccc(C(C)(C)C)cc1	–	–	–	–	0	0	0	0	0
Cn1nc(C2CC2)c(Cl)c1C(=O)NCc1ccc(C(C)(C)C)cc1	–	–	–	–	0	30	0	0	0
CCCCc1nn(C)c(C(=O)NCc2ccc(C(C)(C)C)cc2)c1Cl	–	–	–	–	0	0	0	0	0
CC(C)Cc1nn(C)c(C(=O)NCc2ccc(C(C)(C)C)cc2)c1Cl	–	–	–	–	0	0	0	0	0
Cn1nc(-c2ccccc2)c(Cl)c1C(=O)NCc1ccc(C(C)(C)C)cc1	–	–	–	–	0	0	0	0	0
CCc1nn(C)c(C(=O)NCc2ccccc2)c1Cl	–	–	–	–	0	0	0	0	0
CCc1nn(C)c(C(=O)NCc2ccc(C)cc2)c1Cl	–	–	–	–	0	0	0	0	0
CCc1ccc(CNC(=O)c2c(Cl)c(CC)nn2C)cc1	–	–	–	–	0	30	0	0	0
Cc1nn(C)c(C(=O)NCc2ccc(C(C)(C)C)cc2)c1Br	3 (≈ 8.24 µM)	9.8 (≈ 26.9 µM)	4 (≈ 11 µM)	17 (≈ 46.7 µM)	30	100	0	100	100
Cc1nn(C)c(C(=O)NCc2ccc(C(C)(C)C)cc2)c1Cl	2.4 (≈ 7.5 µM)	7.7 (≈ 24.1 µM)	3.1 (≈ 9.69 µM)	9.9 (≈ 31 µM)	100	100	30	100	100
CCc1nn(C)c(C(=O)NCc2ccc(C(C)(C)C)cc2)c1Cl [TEBUFENPYRAD]	0.96 (≈ 2.88 µM)	3.7 (≈ 11.1 µM)	0.5 (≈ 1.5 µM)	3.9 (≈ 11.7 µM)	100	100	100	100	100
